Measurements as given in patent US20240197661A1, “ORAL DOSAGE FORMS OF METHYL HYDROGEN FUMARATE AND PRODRUGS THEREOF” (Arbor Pharmaceuticals, LLC, priority 2012, published 2024).

Assays:
[1] = degradation of MHF prodrugs in pH 6.0 phosphate buffer with sodium acetate
Experimental: Each prodrug was placed in a pH 6.0 phosphate buffer with multiple concentrations of sodium acetate (0.0 M, 0.1 M, 0.5 M, 2.0 M, 3.0 M, and 4.0 M) at 40° C. The presence of prodrug was measured over time up to 42 hours. The rate of prodrug degradation can be expressed according to the following formula: In (A)=In (A0)−Kobs●t, wherein A is the prodrug concentration, A0 is the prodrug concentration at time zero and Kobs is the observed slope of the curve plotting In (A) versus time (t). Thus, the higher the Kobs, the more quickly the prodrug is degrading.

[2] = tested on: subjects with moderate-to-severe plaque psoriasis; experiment: safety (adverse events) in 24-week plaque psoriasis study; format: in vivo, human
Experimental: (§1) Study subjects were enrolled at 76 US sites. Patients had chronic plaque psoriasis for more than 6 months, PASI (Psoriasis Area and Severity Index) scores ≥12, IGA (Investigator's Global Assessment) Scores ≥3, and psoriasis BSA (Body Surface Area) ≥10%. Altogether 426 subjects were randomized in a 1:1:1:1 ratio into 4 dose arms: 400 mg QD, 400 mg BID, 600 mg BID, and placebo. A 5-week titration phase was followed by 19 weeks of treatment. The co-primary end points at week 24 were the percentages of patients achieving an at least 75% reduction of their baseline PASI (“PASI-75”) and an IGA score of ‘clear’ or ‘almost clear’ (i.e., 0 or 1).

[3] = tested on: subjects with moderate-to-severe plaque psoriasis; experiment: 24-week placebo-controlled efficacy study in plaque psoriasis; format: in vivo, human; conditions: for patients achieving PASI-75 / patients achieving an IGA score of 0 or 1: week 24
Experimental: as §1

[4] = tested on: healthy adult subjects; experiment: safety and tolerability in single-dose food effect study; format: in vivo, human; conditions: single 100 mg dose, fed and fasted
From the text: Twelve healthy adult volunteers (males and females) participated in the study. All twelve subjects received […] a dosage form of Example 3, once in a fed condition and once in a fasted condition, with a two-week washout between treatments. The fasted dosing was achieved by dosing the subject following an overnight fast while the fed dosing was achieved by dosing the subject after consuming a high fat-content breakfast.
All 12 subjects completed the dosing period. All adverse events were mild.

CCN(CC)C(=O)COC(=O)/C=C/C(=O)OC [PPC-06, (N,N-Diethylcarbamoyl)methyl methyl (2E)but-2-ene-1,4-dioate]
formation rates of both primary degradation products ([1]; 14.6 hour exposure, pH 6.0, 40° C., varying acetate concentration): increased with increasing acetate concentration | effect of acetate on degradation rate compared to DMF ([1]; pH 6.0, 40° C.): more pronounced | degradation rate (Kobs) as a function of acetate concentration ([1]; pH 6.0 phosphate buffer, sodium acetate 0.0-4.0 M, 40° C., up to 42 hours): increased with increasing concentrations of acetate | patients reporting diarrhea (TEAE) ([2]; 400 mg BID): 18% | patients reporting diarrhea (TEAE) ([2]; 400 mg QD): 7% | patients reporting diarrhea (TEAE) ([2]; 600 mg BID): 23% | flushing reported ([2]; PPC-06 treatment arms): 1-2% | subjects developing CTCAE grade 3 lymphopenia ([2]; during treatment, recovered on discontinuation): Two | new or unexpected adverse events compared to DMF drugs ([2]; in vivo): No new or unexpected adverse events | severity of most cases of diarrhea ([2]; in vivo): mild to moderate | nausea and abdominal pain reported ([2]; overall PPC-06 population): less than 10% | patients achieving PASI-75 ([3]; 400 mg BID, p=0.002 vs placebo): 47.2% | patients achieving an IGA score of 0 or 1 ([3]; 400 mg BID, p=0.021 vs placebo): 41.4% | patients achieving PASI-75 ([3]; 400 mg QD, p=0.004 vs placebo): 39.7% | patients achieving an IGA score of 0 or 1 ([3]; 400 mg QD, p=0.044 vs placebo): 35.7% | patients achieving PASI-75 ([3]; 600 mg BID, p=0.004 vs placebo): 44.3% | patients achieving an IGA score of 0 or 1 ([3]; 600 mg BID, p=0.010 vs placebo): 44.4% | efficacy compared to placebo ([3]; 24 weeks of treatment, three dose strengths): significant efficacy compared to placebo | severity of adverse events [4]: mild | tolerability during the trial [4]: well tolerated
